Toxic doses and inconclusive results are not listed. Cut-off read from the data, not from the text of the source: active = T/C of 150% or more; inactive = T/C below 125%.
Test system: L1210 leukemia ip in BDF1 mice, survival T/C
Experiment: NCI In Vivo Anticancer Drug Screen. Data for tumor model L1210 Leukemia (intraperitoneal) in B6D2F1 (BDF1) mice
Conditions: endpoint: mean survival time, higher = longer survival
Method in brief: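 Transplantable tumor model; survival measured in treated vs vehicle control mice. Value = treated/control.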

[1] = dose: 100.0 mg/kg/injection, schedule: Q04DX003 (ip), vehicle: saline
[2] = dose: 200.0 mg/kg/injection, schedule: Q04DX003 (ip), vehicle: saline
[3] = dose: 400.0 mg/kg/injection, schedule: Q04DX003 (ip), vehicle: saline
[4] = dose: 100.0 mg/kg/injection, schedule: Q01DX001 (ip), vehicle: saline
[5] = dose: 200.0 mg/kg/injection, schedule: Q01DX001 (ip), vehicle: saline
[6] = dose: 100.0 mg/kg/injection, schedule: Q01DX009 (ip), vehicle: Klucel (hydroxypropylcellulose) (HPC)
[7] = dose: 200.0 mg/kg/injection, schedule: Q01DX009 (ip), vehicle: Klucel (hydroxypropylcellulose) (HPC)
[8] = dose: 400.0 mg/kg/injection, schedule: Q01DX009 (ip), vehicle: Klucel (hydroxypropylcellulose) (HPC)
[9] = dose: 100.0 mg/kg/injection, schedule: Q04DX003 (ip), vehicle: Klucel (hydroxypropylcellulose) (HPC)
[10] = dose: 200.0 mg/kg/injection, schedule: Q04DX003 (ip), vehicle: Klucel (hydroxypropylcellulose) (HPC)
[11] = dose: 400.0 mg/kg/injection, schedule: Q04DX003 (ip), vehicle: Klucel (hydroxypropylcellulose) (HPC)
[12] = dose: 100.0 mg/kg/injection, schedule: Q04DX003 (ip), vehicle: acetone
[13] = dose: 200.0 mg/kg/injection, schedule: Q04DX003 (ip), vehicle: acetone
[14] = dose: 400.0 mg/kg/injection, schedule: Q04DX003 (ip), vehicle: acetone
[15] = dose: 100.0 mg/kg/injection, schedule: Q01DX001 (ip), vehicle: carboxymethylcellulose (CMC)
[16] = dose: 200.0 mg/kg/injection, schedule: Q01DX001 (ip), vehicle: carboxymethylcellulose (CMC)
[17] = dose: 400.0 mg/kg/injection, schedule: Q01DX001 (ip), vehicle: carboxymethylcellulose (CMC)

Measured: T/C

Cc1ccc(-n2nnc3ccccc3c2=O)cc1C
inactive: dose: 100.0 mg/kg/injection, schedule: Q01DX009 (ip), vehicle: saline 101 % of control | [1] 92 % of control | dose: 200.0 mg/kg/injection, schedule: Q01DX009 (ip), vehicle: saline 98 % of control | [2] 108 % of control | dose: 400.0 mg/kg/injection, schedule: Q01DX009 (ip), vehicle: saline 104 % of control | [3] 93 % of control

CCCCC(OC(=O)c1ccc([N+](=O)[O-])cc1)C(C)[N+](=O)[O-] (stereo unspecified)
inactive: dose: 100.0 mg/kg/injection, schedule: Q01DX009 (ip), vehicle: saline with Tween-80 94 % of control | dose: 200.0 mg/kg/injection, schedule: Q01DX009 (ip), vehicle: saline with Tween-80 97 % of control | dose: 400.0 mg/kg/injection, schedule: Q01DX009 (ip), vehicle: saline with Tween-80 92 % of control

O=[N+]([O-])c1ccc2[nH]ccc2c1
inactive: [4] 98 % of control | [5] 104 % of control | dose: 400.0 mg/kg/injection, schedule: Q01DX001 (ip), vehicle: saline 102 % of control

NC(=O)NC(=O)COc1ccc(Cl)cc1Cl
inactive: dose: 100.0 mg/kg/injection, schedule: Q04DX002 (ip), vehicle: saline + alcohol 96 % of control | dose: 200.0 mg/kg/injection, schedule: Q04DX002 (ip), vehicle: saline + alcohol 103 % of control

CCOC(=O)c1cn(C2OC(COC(C)=O)C(OC(C)=O)C2OC(C)=O)c2nc(SC)nc(NC(C)=O)c2c1=O (stereo unspecified)
inactive: dose: 100.0 mg/kg/injection, schedule: Q01DX005 (ip), vehicle: saline 97 % of control | dose: 200.0 mg/kg/injection, schedule: Q01DX005 (ip), vehicle: saline 91 % of control

CCN(CC)S(=O)(=O)c1ccc(OC)c(N)c1
inactive: [6] 98 % of control | dose: 100.0 mg/kg/injection, schedule: Q04DX003 (ip), vehicle: other 96 % of control | [7] 96 % of control | dose: 200.0 mg/kg/injection, schedule: Q04DX003 (ip), vehicle: other 104 % of control | [8] 104 % of control | dose: 400.0 mg/kg/injection, schedule: Q04DX003 (ip), vehicle: other 100 % of control

CC(C)=CCCNC(=O)NS(=O)(=O)c1ccc(C)cc1
inactive: [9] 99 % of control | [10] 101 % of control | [11] 97 % of control

Cc1ccc([N+](=O)[O-])cc1P(=O)(O)c1cc([N+](=O)[O-])ccc1C
inactive: dose: 100.0 mg/kg/injection, schedule: Q01DX001 (ip), vehicle: acetone 94 % of control | [12] 103 % of control | dose: 200.0 mg/kg/injection, schedule: Q01DX001 (ip), vehicle: acetone 94 % of control | [13] 92 % of control | dose: 400.0 mg/kg/injection, schedule: Q01DX001 (ip), vehicle: acetone 93 % of control | [14] 100 % of control

COc1ccc2nc3cc(Cl)ccc3c(NCCO)c2c1
inactive: dose: 75.0 mg/kg/injection, schedule: Q01DX001 (ip), vehicle: Klucel (hydroxypropylcellulose) (HPC) 100 % of control | [15] 100 % of control | [1] 96 % of control | dose: 150.0 mg/kg/injection, schedule: Q01DX001 (ip), vehicle: Klucel (hydroxypropylcellulose) (HPC) 96 % of control | [16] 100 % of control | [2] 96 % of control | dose: 300.0 mg/kg/injection, schedule: Q01DX001 (ip), vehicle: Klucel (hydroxypropylcellulose) (HPC) 96 % of control | [17] 108 % of control | [3] 89 % of control

CC12CCC(=O)C=C1CCC1C2CCC2(C)C(OC(=O)CN3CC3)CCC12 (stereo unspecified)
inactive: dose: 100.0 mg/kg/injection, schedule: Q01DX001 (sc), vehicle: steriod suspending solution 101 % of control | dose: 200.0 mg/kg/injection, schedule: Q01DX001 (sc), vehicle: steriod suspending solution 97 % of control | dose: 400.0 mg/kg/injection, schedule: Q01DX001 (sc), vehicle: steriod suspending solution 103 % of control

CCCCCCCC/C=C\CCCCCCCCNP(=O)(OCCCCCCCCCCCC)OCCCCCCCCCCCC
inactive: dose: 100.0 mg/kg/injection, schedule: Q04DX002 (ip), vehicle: saline with Tween-80 101 % of control | dose: 400.0 mg/kg/injection, schedule: Q04DX002 (ip), vehicle: saline with Tween-80 86 % of control

O=C(N/N=C\c1ccc(O)cc1O)c1ccco1
inactive: dose: 100.0 mg/kg/injection, schedule: Q01DX001 (ip), vehicle: other 90 % of control | dose: 200.0 mg/kg/injection, schedule: Q01DX001 (ip), vehicle: other 93 % of control | dose: 400.0 mg/kg/injection, schedule: Q01DX001 (ip), vehicle: other 96 % of control

ClCCc1ccc(-n2cnc3c(Cl)ncnc32)cc1
inactive: dose: 50.0 mg/kg/injection, schedule: Q01DX001 (ip), vehicle: carboxymethylcellulose (CMC) 104 % of control | [15] 106 % of control | [16] 101 % of control | [17] 98 % of control

Nc1cc2ccccc2c2c1ccc1ccccc12
inactive: dose: 87.5 mg/kg/injection, schedule: Q04DX003 (ip), vehicle: Klucel (hydroxypropylcellulose) (HPC) 91 % of control | [9] 97 % of control | dose: 175.0 mg/kg/injection, schedule: Q04DX003 (ip), vehicle: Klucel (hydroxypropylcellulose) (HPC) 93 % of control | [10] 94 % of control | dose: 350.0 mg/kg/injection, schedule: Q04DX003 (ip), vehicle: Klucel (hydroxypropylcellulose) (HPC) 102 % of control

O=C1NC(=O)C(Nc2ccccc2)(c2ccccc2)N1 (stereo unspecified)
inactive: dose: 100.0 mg/kg/injection, schedule: Q01DX001 (ip), vehicle: Klucel (hydroxypropylcellulose) (HPC) 90 % of control | dose: 200.0 mg/kg/injection, schedule: Q01DX001 (ip), vehicle: Klucel (hydroxypropylcellulose) (HPC) 95 % of control

CC1CCCCN1CC(Cl)(Cl)Cl (stereo unspecified)
inactive: [4] 89 % of control | [5] 94 % of control

O=C(O)CC(c1ccccc1)c1ccccc1
inactive: [6] 98 % of control | [9] 94 % of control | [7] 97 % of control | [10] 107 % of control | [8] 109 % of control | [11] 107 % of control

CC(=O)Nc1ccc(Cc2ccc(N)cc2)cc1
inactive: [4] 108 % of control | [5] 104 % of control

COC(=O)c1c[nH]c2ccccc2c1=O
inactive: [6] 106 % of control | [9] 96 % of control | [7] 95 % of control | [10] 107 % of control | [8] 108 % of control | [11] 91 % of control

COc1ccc([N+](=O)[O-])c2c1CONC2(C)C(=O)O (stereo unspecified)
inactive: [12] 98 % of control | [13] 95 % of control | [14] 98 % of control

CCN(CC)c1ccc(N=Nc2ncn[nH]2)c(O)c1
inactive: dose: 100.0 mg/kg/injection, schedule: Q01DX001 (ip), vehicle: saline with Tween-80 100 % of control | dose: 200.0 mg/kg/injection, schedule: Q01DX001 (ip), vehicle: saline with Tween-80 98 % of control | dose: 400.0 mg/kg/injection, schedule: Q01DX001 (ip), vehicle: saline with Tween-80 88 % of control
